From BindingDB's records for doi:10.7270/Q2N58JS6 (University of Pittsburgh, 2007)

Target: Serine/threonine-protein kinase PLK1 (Homo sapiens, UniProt P53350)
Experiment: redox cycling hydrogen peroxide generation, dose response, artefact control for Plk1 PBD inhibitor project, biochemical, 1 mM DTT (AID 936)

Sequence of Serine/threonine-protein kinase PLK1 (P53350 whole entry): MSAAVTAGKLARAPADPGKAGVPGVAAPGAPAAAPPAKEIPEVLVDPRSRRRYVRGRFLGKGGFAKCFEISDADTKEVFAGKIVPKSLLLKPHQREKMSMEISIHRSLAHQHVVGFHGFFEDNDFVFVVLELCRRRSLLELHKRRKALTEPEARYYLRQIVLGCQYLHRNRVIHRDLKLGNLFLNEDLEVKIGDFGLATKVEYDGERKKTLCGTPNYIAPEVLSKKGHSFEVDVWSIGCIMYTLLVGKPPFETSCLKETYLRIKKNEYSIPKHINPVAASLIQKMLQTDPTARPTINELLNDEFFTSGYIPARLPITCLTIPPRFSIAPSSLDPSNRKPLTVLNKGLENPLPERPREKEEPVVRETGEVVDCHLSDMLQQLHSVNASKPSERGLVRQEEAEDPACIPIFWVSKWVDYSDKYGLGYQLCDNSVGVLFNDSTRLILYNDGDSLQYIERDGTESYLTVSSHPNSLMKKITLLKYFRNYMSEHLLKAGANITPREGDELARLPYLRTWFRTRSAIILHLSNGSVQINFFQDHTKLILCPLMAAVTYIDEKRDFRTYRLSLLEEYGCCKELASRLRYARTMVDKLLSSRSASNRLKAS

Structure (SMILES)	EC50 [µM]
Nc1ccc2c(c1)C(=O)C(=O)c1ccccc1-2 [2-Amino-phenanthrene-9,10-dione]	> 50
Cc1ccc(NC(=O)C2CC=CCC2C(=O)N2CCCCC2)cc1 (stereo not given) [6-(Piperidine-1-carbonyl)-cyclohex-3-enecarboxylic acid p-tolylamide]	> 50
O=C1C(=O)c2ccccc2-c2ccccc21	> 50
CC(C)=CC(=O)NCCc1ccccc1 [MLS000089152]	> 50
Cc1ccccc1NS(=O)(=O)c1cc(C(=O)NCc2ccco2)ccc1C [MLS000052108]	> 50
Cc1cccc2[nH]c3c(N4CCN(C(=O)c5ccco5)CC4)ncnc3c12 [SMR000148910]	> 50
CCn1ncc(CN2CCN(C(=O)Nc3ccccc3C(=O)OC)CC2)c1C [2-[[4-[(1-ethyl-5-methyl-pyrazol-4-yl)methyl]piperazine-1-carbonyl]amino]benzoic acid methyl ester]	> 50
CC(C)Sc1nc(N2CCOCC2)c2c(c1C#N)CC(C)(C)N(C)C2 [3-(isopropylthio)-6,6,7-trimethyl-1-morpholino-5,8-dihydro-2,7-naphthyridine-4-carbonitrile]	> 50
O=C(NC1(O)C(=O)c2ccccc2C1=O)c1ccccc1 [N-(2-hydroxy-1,3-dioxo-2-indenyl)benzamide]	> 50
C=CCn1c2ccccc2c2nnc(SCc3ccc4nonc4c3)nc21 [5-[(5-prop-2-enyl-[1,2,4]triazino[5,6-b]indol-3-yl)sulfanylmethyl]-2,1,3-benzoxadiazole]	> 50
Cc1cccc(C)c1NC1=NC(=S)N(c2ccccc2)C12CCOC(C)(C)C2 (stereo not given) [4-(2,6-dimethylanilino)-7,7-dimethyl-1-phenyl-8-oxa-1,3-diazaspiro[4.5]dec-3-ene-2-thione]	> 50
Cc1ccc(C(=O)c2c[nH]c(C(=O)NCCCN3CCOCC3)c2)cc1 [4-(4-methylbenzoyl)-N-(3-morpholin-4-ylpropyl)-1H-pyrrole-2-carboxamide]	> 50
Cc1ccc(CNC(=O)c2cc3c(=O)n(C)c4ccccc4c3n2C)cc1 [1,5-dimethyl-N-[(4-methylphenyl)methyl]-4-oxidanylidene-pyrrolo[3,2-c]quinoline-2-carboxamide]	> 50
O=C(NC1(C(F)(F)F)NC(=O)N(CC2CCCCC2)C1=O)c1ccco1 (stereo not given) [MLS000040678]	> 50
CC1(C)CC(=O)C=C(NCc2ccncc2)C1 [5,5-dimethyl-3-(4-pyridylmethylamino)cyclohex-2-en-1-one]	> 50
Oc1ccc2ccc3cccc[n+]3c2c1 [9-benzo[c]quinolizin-11-iumol;iodide]	> 50
COc1ccc(Nc2oc(-c3ccccc3Cl)nc2C#N)cc1 [2-(2-chlorophenyl)-5-(4-methoxyanilino)-1,3-oxazole-4-carbonitrile]	> 50
CCn1ccc(C(=O)Nc2ccc(N(C)C(C)=O)cc2)n1 [MLS000043435]	> 50
Cn1c(=O)c2c(ncn2CCCc2ccccc2)n(C)c1=O [1,3-Dimethyl-7-(3-phenyl-propyl)-3,7-dihydro-purine-2,6-dione]	> 50
CN(C)c1ccc(C(=O)Nc2nc3c(s2)CCCC3)cc1 [4-(dimethylamino)-N-(4,5,6,7-tetrahydro-1,3-benzothiazol-2-yl)benzamide]	> 50
Cc1nc2c(=O)n(C)c(=O)nc-2n(C)n1 [1,3,6-Trimethyl-1H-pyrimido[5,4-e][1,2,4]triazine-5,7-dione]	> 50
O=C(c1ccc(-n2cnnn2)cc1)N1CCCCC1 [1-piperidinyl-[4-(1-tetrazolyl)phenyl]methanone]	> 50
COC(=O)CCc1c(C)[nH]c(=S)[nH]c1=O [3-(6-methyl-4-oxo-2-sulfanylidene-1H-pyrimidin-5-yl)propanoic acid methyl ester]	> 50

Structure (SMILES)	EC50 [µM]
CCc1noc(C)c1C(=O)N1CCOCC1 [(3-ethyl-5-methyl-1,2-oxazol-4-yl)-morpholin-4-yl-methanone]	> 50
CN1C(=O)N(C)C(=O)C2(Sc3ccccc3C2=O)C1=O [1',3'-dimethylspiro[benzothiophene-2,5'-hexahydropyrimidine]-2',3,4',6'-diquinone]	> 50
CC(=O)N(N=C1Sc2ccccc2C1=O)c1cccc(C)c1 [N-(3-methylphenyl)-N-[(3-oxidanylidene-1-benzothiophen-2-ylidene)amino]ethanamide]	> 50
CC1CN(C2CC(C)(C)NC(C)(C)C2)CCC1=O (stereo not given) [3-methyl-1-(2,2,6,6-tetramethyl-4-piperidinyl)-4-piperidinone]	> 50
NC(=O)C1CCN(C2=C(Cl)C(=O)c3ccccc3C2=O)CC1 [SMR000180199]	> 50
CCC(=O)Nc1ccccc1C(=O)NC1CCCCC1 [MLS000538265]	> 50
OCC(CO)(CO)N=Cc1cc(Br)ccc1O [(6E)-4-bromanyl-6-[[[2-(hydroxymethyl)-1,3-bis(oxidanyl)propan-2-yl]amino]methylidene]cyclohexa-2,4-dien-1-one]	> 50
Cn1c(=O)c(NCCO)c2c3c(cccc31)C(=O)c1ccccc1-2 [1-(2-Hydroxy-ethylamino)-3-methyl-3H-naphtho[1,2,3-de]quinoline-2,7-dione]	> 50
COc1ccc(S(=O)(=O)N(C)CC(=O)Nc2ccccc2C(F)(F)F)cc1 [2-[(4-methoxyphenyl)sulfonyl-methyl-amino]-N-[2-(trifluoromethyl)phenyl]acetamide]	> 50
COc1ccc2c3c(cccc13)NN=C2C [6-Methoxy-3-methyl-1H-benzo[de]cinnoline]	> 50
Cc1nc2cccc(C)n2c(=O)c1Cl [3-chloranyl-2,6-dimethyl-pyrido[1,2-a]pyrimidin-4-one]	> 50
COc1ccc(Cn2c(=O)sc3ccccc32)cc1 [3-(4-Methoxy-benzyl)-3H-benzothiazol-2-one]	> 50
CC(C)OCCCNC(=O)c1ccc(NC(=O)C2CCCO2)cc1 (stereo not given) [MLS000086701]	> 50
CCOC(=O)c1ccc(NC(=O)c2c(O)[nH]c(=O)[nH]c2=O)cc1	> 50
CCC(Sc1nc2nnc(C)c-2c(N)n1-c1cccc(Cl)c1)C(=O)NCCOC (stereo not given) [2-[4-amino-5-(3-chlorophenyl)-3-methylpyrazolo[3,4-d]pyrimidin-6-yl]sulfanyl-N-(2-methoxyethyl)butanamide]	> 50
COC(=O)CNC(=O)C12CC3(C)CC(C)(CC(C)(C3)C1)C2 [2-[[oxo-(3,5,7-trimethyl-1-adamantyl)methyl]amino]acetic acid methyl ester]	> 50
NC(=O)C1(N2CCCCC2)CCN(C(=O)NC2CCCCC2)CC1 [1-N-cyclohexyl-4-piperidin-1-ylpiperidine-1,4-dicarboxamide]	> 50
Fc1ccc(Cn2nnnc2CN2CCN(C3CCCC3)CC2)cc1 [1-Cyclopentyl-4-[1-(4-fluoro-benzyl)-1H-tetrazol-5-ylmethyl]-piperazine]	> 50
CC(=O)N(N=C1Sc2ccccc2C1=O)c1ccccc1C [N-(2-methylphenyl)-N-[(3-oxo-1-benzothiophen-2-ylidene)amino]acetamide]	> 50
CCOc1ccccc1N1CCN(C2=C(NS(=O)(=O)c3cccs3)C(=O)c3ccccc3C2=O)CC1 [MLS000551587]	> 50
COc1ccc2c(c1OC)C(=O)OC2CC(=O)O (stereo not given) [(4,5-dimethoxy-3-oxo-1,3-dihydro-2-benzofuran-1-yl)acetic acid]	> 50
O=C1CCC(C(=O)O)(c2ccccc2)C1 (stereo not given) [3-Oxo-1-phenyl-cyclopentanecarboxylic acid]	> 50
